The test system of the assay is P388 leukemia ip, CD2F1 mice, survival T/C. Nature of the assay: NCI In Vivo Anticancer Drug Screen. Data for tumor model P388 Leukemia (intraperitoneal) in CD2F1 (CDF1) mice. To be noted: endpoint: median survival time, higher = longer survival. An outline of the steps:
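Mice carrying the transplanted tumor received test compound or vehicle. Survival was recorded in each group, and the value is the treated-group measurement divided by that of the vehicle-treated control group.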

Where [1] appears, read: dose: 50.0 mg/kg/injection, schedule: Q01DX005 (ip), vehicle: Klucel (hydroxypropylcellulose) (HPC).
The mark [2] stands for this setting: dose: 100.0 mg/kg/injection, schedule: Q01DX005 (ip), vehicle: Klucel (hydroxypropylcellulose) (HPC).
Where [3] appears, read: dose: 200.0 mg/kg/injection, schedule: Q01DX005 (ip), vehicle: Klucel (hydroxypropylcellulose) (HPC).
[4] abbreviates: dose: 50.0 mg/kg/injection, schedule: Q01DX005 (ip), vehicle: saline with Tween-80.
[5] abbreviates: dose: 100.0 mg/kg/injection, schedule: Q01DX005 (ip), vehicle: saline with Tween-80.
[6] abbreviates: dose: 200.0 mg/kg/injection, schedule: Q01DX005 (ip), vehicle: saline with Tween-80.
[7] abbreviates: dose: 60.0 mg/kg/injection, schedule: Q01DX005 (ip), vehicle: saline with Tween-80.
[8] abbreviates: dose: 120.0 mg/kg/injection, schedule: Q01DX005 (ip), vehicle: saline with Tween-80.
[9] abbreviates: dose: 240.0 mg/kg/injection, schedule: Q01DX005 (ip), vehicle: saline with Tween-80.
Where [10] appears, read: dose: 60.0 mg/kg/injection, schedule: Q01DX005 (ip), vehicle: Klucel (hydroxypropylcellulose) (HPC).
Where [11] appears, read: dose: 120.0 mg/kg/injection, schedule: Q01DX005 (ip), vehicle: Klucel (hydroxypropylcellulose) (HPC).
Setting [12] is: dose: 12.5 mg/kg/injection, schedule: Q01DX009 (ip), vehicle: saline.
The mark [13] stands for this setting: dose: 25.0 mg/kg/injection, schedule: Q01DX009 (ip), vehicle: saline.
The mark [14] stands for this setting: dose: 50.0 mg/kg/injection, schedule: Q01DX009 (ip), vehicle: saline.
Where [15] appears, read: dose: 6.25 mg/kg/injection, schedule: Q01DX009 (ip), vehicle: saline.

The structures appear in SMILES notation. Several values for one entry are separate records, joined by “and”; a condition that tells them apart may be missing. Identical values can stand only once. Toxic doses and inconclusive results are not listed.

`O=c1[nH]c(=S)c2c(n1CCCO)CCC2`: the T/C by setting is: under setting [1], 97 % of control; under setting [2], 101 % of control; under setting [3], 105 % of control.

Take `O=C1/C(=C\c2ccc3c(c2)OCO3)SC(=S)N1CCCN1CCOCC1`: the T/C is 92 % of control under setting [4], 90 % of control under setting [5] and 93 % of control under setting [6].

Take `CCOC(=O)C(=O)Nc1c(C(C)=O)cc(C)c(C)c1C#N`: the T/C runs as follows: (dose: 50.0 mg/kg/injection, schedule: Q01DX009 (ip), vehicle: saline + alcohol) 92 % of control; (dose: 100.0 mg/kg/injection, schedule: Q01DX009 (ip), vehicle: saline + alcohol) 97 % of control; (dose: 200.0 mg/kg/injection, schedule: Q01DX009 (ip), vehicle: saline + alcohol) 96 % of control.

As for `CNc1nc2cc(OC)c(OC)cc2c(=O)[nH]1`, the T/C is 98 % of control (dose: 15.0 mg/kg/injection, schedule: Q01DX005 (ip), vehicle: saline with Tween-80); 94 % of control (dose: 30.0 mg/kg/injection, schedule: Q01DX005 (ip), vehicle: saline with Tween-80); 91 % of control and 98 % of control under setting [7]; 100 % of control under setting [8].

For the compound `CC(=O)OCC1OC([Se-])C(OC(C)=O)C(OC(C)=O)C1OC(C)=O.N#CCC[PH+](CCC#N)CCC#N.[Au+]` (centres undefined), the T/C under setting [7] is 98 % of control.

Regarding `O=C(O)C(O)C(O)C1[O][Sb][O]C1CO` (centres undefined), the T/C is 98 % of control under setting [4], 96 % of control under setting [5] and 96 % of control under setting [6].

As for `Cc1cccc(C(C#N)C(=O)CCCC(=O)Nc2ccccc2[N+](=O)[O-])c1` (centres undefined), the T/C reads like this: under setting [7], 98 % of control; under setting [8], 100 % of control; under setting [9], 94 % of control.

As for `CC(=O)[O-].O=C(N/N=C/c1ccccc1[O-])c1ccccc1.[Zn+2]`, the T/C reads like this: under setting [7], 95 % of control; under setting [8], 106 % of control.

`N=C(N)c1ccc(N=Nc2ccc(N)cc2N)cc1`: the T/C was 120 % of control under setting [10] and 124 % of control under setting [11].

In the case of `CC(C)CC(=O)CC(c1ccccc1)C(C(=O)/C=C/c1ccccc1)C(C)C` (centres undefined), the T/C runs as follows: (dose: 12.5 mg/kg/injection, schedule: Q01DX005 (ip), vehicle: saline with Tween-80) 94 % of control; (dose: 25.0 mg/kg/injection, schedule: Q01DX005 (ip), vehicle: saline with Tween-80) 94 % of control; under setting [4], 87 % of control and 92 % of control.

As for `O=Cc1cc(/C(N=Nc2ccccc2C(=O)O)=N/Nc2ccccc2C(=O)O)nc2[nH]c(=O)ccc12`, the T/C runs as follows: under setting [1], 95 % of control; under setting [2], 100 % of control.

On to `CCCCCCCCCCCCSC1=CC(=O)C(OC)=C(OC)C1=O`, for which the T/C by setting is: (dose: 0.78 mg/kg/injection, schedule: Q01DX009 (ip), vehicle: other) 101 % of control; (dose: 1.56 mg/kg/injection, schedule: Q01DX009 (ip), vehicle: other) 108 % of control; (dose: 3.13 mg/kg/injection, schedule: Q01DX009 (ip), vehicle: other) 102 % of control; (dose: 6.25 mg/kg/injection, schedule: Q01DX009 (ip), vehicle: other) 108 % of control; (dose: 6.25 mg/kg/injection, schedule: Q01DX030 (ip), vehicle: saline with Tween-80) 101 % of control; (dose: 10.0 mg/kg/injection, schedule: Q01DX030 (ip), vehicle: saline with Tween-80) 108 % of control. The T/C (dose: 12.5 mg/kg/injection, schedule: Q01DX009 (ip), vehicle: other) is 110 % of control; the T/C (dose: 12.5 mg/kg/injection, schedule: Q01DX030 (ip), vehicle: saline with Tween-80) was 104 % of control and 108 % of control and 121 % of control; the T/C (dose: 25.0 mg/kg/injection, schedule: Q01DX009 (ip), vehicle: other) was 118 % of control; the T/C (dose: 25.0 mg/kg/injection, schedule: Q01DX030 (ip), vehicle: saline with Tween-80) is 105 % of control.

Turning to `CCCCC(CC)C[N+]1(C)CCOCC1` (centres undefined), the T/C runs as follows: under setting [12], 100 % of control; under setting [13], 100 % of control; under setting [14], 94 % of control.

`NC(N)=NCC(N)C(=O)O` (centres undefined): the T/C under setting [1] is 101 % of control, the T/C under setting [2] was 104 % of control and the T/C under setting [3] is 104 % of control.

Consider `Cc1nc2c(cnn2C)c(=O)n1C`, for which the T/C reads like this: under setting [1], 111 % of control; under setting [2], 111 % of control; under setting [3], 111 % of control.

Turning to `C1CN1P1(N2CC2)=NP(N2CC2)(N2CC2)=NP(N2CC2)(N2CC2)=NP(N2CC2)(N2CC2)=N1`, the T/C by setting is: (dose: 5.0 mg/kg/injection, schedule: Q01DX009 (ip), vehicle: saline) 195 % of control; (dose: 10.0 mg/kg/injection, schedule: Q01DX009 (ip), vehicle: saline) 222 % of control.

As for `CCCC1(c2ccccc2)C(=O)NCNC1=O`, the T/C runs as follows: (dose: 20.0 mg/kg/injection, schedule: Q01DX005 (ip), vehicle: Klucel (hydroxypropylcellulose) (HPC)) 100 % of control; (dose: 40.0 mg/kg/injection, schedule: Q01DX005 (ip), vehicle: Klucel (hydroxypropylcellulose) (HPC)) 99 % of control and 109 % of control; under setting [10], 100 % of control and 116 % of control; under setting [11], 93 % of control and 95 % of control; (dose: 240.0 mg/kg/injection, schedule: Q01DX005 (ip), vehicle: Klucel (hydroxypropylcellulose) (HPC)) 92 % of control.

As to `O=C1NCN(c2ccccc2)C12CCNCC2`, the T/C is, setting by setting: (dose: 25.0 mg/kg/injection, schedule: Q04DX003 (ip), vehicle: saline sonified) 109 % of control; (dose: 50.0 mg/kg/injection, schedule: Q04DX003 (ip), vehicle: saline sonified) 109 % of control; (dose: 100.0 mg/kg/injection, schedule: Q04DX003 (ip), vehicle: saline sonified) 95 % of control.

On to `CCOC(=O)/[C](=N\N=P(N(C)C)(N(C)C)N(C)C)[Hg]/[C](=N/N=P(N(C)C)(N(C)C)N(C)C)C(=O)OCC`, for which the T/C is 101 % of control and 94 % of control under setting [15]; 99 % of control and 94 % of control under setting [12]; 103 % of control and 108 % of control under setting [13]; 106 % of control and 110 % of control under setting [14].

With `O=C1C=C(Cl)C(O)C1(Cl)Cl` (centres undefined), the T/C was 94 % of control under setting [15] and 92 % of control under setting [12].

As to `O=c1[nH][nH]c(=O)c2c1Nc1c(c(=O)[nH][nH]c1=O)C2c1ccncc1`, the T/C reads like this: under setting [4], 103 % of control; under setting [5], 108 % of control; under setting [6], 96 % of control.

As to `N#CC(Nc1ncccn1)c1ccccc1` (centres undefined), the T/C is, setting by setting: under setting [7], 97 % of control; under setting [8], 94 % of control; under setting [9], 91 % of control.

As to `C=CCC1OC(COC(=O)c2ccccc2)C(OC(=O)c2ccccc2)C1OC(=O)c1ccccc1` (centres undefined), the T/C runs as follows: (dose: 25.0 mg/kg/injection, schedule: Q01DX005 (ip), vehicle: Klucel (hydroxypropylcellulose) (HPC)) 112 % of control; (dose: 44.5 mg/kg/injection, schedule: Q01DX005 (ip), vehicle: Klucel (hydroxypropylcellulose) (HPC)) 114 % of control; under setting [1], 117 % of control; (dose: 89.0 mg/kg/injection, schedule: Q01DX005 (ip), vehicle: Klucel (hydroxypropylcellulose) (HPC)) 120 % of control; under setting [2], 118 % of control.

Turning to `O=c1[nH]cnc2[nH]cc([N+](=O)[O-])c12`, the T/C is, setting by setting: under setting [15], 102 % of control; under setting [12], 107 % of control; under setting [13], 102 % of control; under setting [14], 103 % of control.

On to `COC(=O)C12OCC34C(CC5C(C)C6=CC(=O)OC6=CC5(C)C3C(O)C1O)OC(=O)C(OC(C)=O)C24` (centres undefined), for which the T/C by setting is: (dose: 18.37 mg/kg/injection, schedule: Q01DX005 (ip), vehicle: Klucel (hydroxypropylcellulose) (HPC)) 106 % of control; (dose: 36.75 mg/kg/injection, schedule: Q01DX005 (ip), vehicle: Klucel (hydroxypropylcellulose) (HPC)) 115 % of control.

As for `CC1=C(C(=O)Nc2ccc(C)cc2C)C(c2cccc([N+](=O)[O-])c2)C(C(=O)Nc2ccc(C)cc2C)=C(C)N1`, the T/C reads like this: (dose: 7.5 mg/kg/injection, schedule: Q01DX005 (ip), vehicle: Klucel (hydroxypropylcellulose) (HPC)) 100 % of control; (dose: 15.0 mg/kg/injection, schedule: Q01DX005 (ip), vehicle: Klucel (hydroxypropylcellulose) (HPC)) 94 % of control; (dose: 30.0 mg/kg/injection, schedule: Q01DX005 (ip), vehicle: Klucel (hydroxypropylcellulose) (HPC)) 98 % of control.

(Values after PubChem BioAssay AID330 (DTP/NCI, 2004).)
